The values that follow are results of earlier work, collected in patent US20170202789A1, “METHODS AND RELATED COMPOSITIONS FOR IMPROVED DRUG BIOAVAILABILITY AND DISEASE TREATMENT” (priority 2014, published 2017).

The conditions of series [1]: caffeine 160 mg drink prior to cycling time trial, p<0.01.
The conditions of series [2]: co-administration with carbohydrate drink, depending on dose and frequency.
The conditions of series [3]: 3 mg/kg one hour prior to running, p<0.05.
For series [4] the following is noted: 400 mg, untrained individuals.
The conditions of series [5]: 6 mg/kg + maintenance doses, with 7% carbohydrate drink.
The conditions of series [6]: doses of 6-9 mg/kg.

As for `Cn1c(=O)c2c(ncn2C)n(C)c1=O` [caffeine], the “reduction of time to complete the trial” value in series [1] is roughly 5%. Moreover, the increase in performance in series [2] is on record as 2-3%. Moreover, in series [3], the “improvement in performance compared to placebo” value is 1.2%. Further, the “effect on bench press, leg extension strength or cycle ergometry” value in series [4] was “did not have any positive effects”. Moreover, the “difference in performance with versus without caffeine” value in series [5] is “No differences were noted”. In addition, the “cognitive function before exercise” value (energy drink with caffeine, low dose) was “improved long term memory”. In addition, the “cognitive function after exercise” value (low and medium dose caffeine containing energy drinks) is “improved all cognitive tests”. The adverse effects entry in series [6] was “jitters, increased heart rate, and a diminution in exercise performance”.

`[O]=[V]([O-])([O-])[O-]` [vanadate]: the “concentration at which formation of EP is inhibited” value in the series with Na/K ATPase is recorded as “less than 1 micromolar”.
